Experimental data as given in ChEMBL document CHEMBL1128439, “Evaluation of cis- and trans-9- and 11-hydroxy-5,6,6a,7,8,12b-hexahydrobenzo[a]phenanthridines as structurally rigid, selective D1 dopamine receptor ligands” (J Med Chem, 1995).
Activity calls are given as the source filed them. The rule behind the calls is not given here.

Legend:
[1] = species on record: Rattus norvegicus; assay: Effect on cAMP synthesis in rat striatal membranes as increase above basal value at a concentration of 10 uM; NS= no synthesis detected; assay type: functional; settings: Striatum, Membrane
[2] = target: D(2) dopamine receptor (Rattus norvegicus, UniProt P61169)
[3] = target: D(1A) dopamine receptor (Rattus norvegicus, UniProt P18901)
[4] = species on record: Rattus norvegicus; assay: Effect on cAMP synthesis in rat striatal membranes as increase above basal value at a concentration of 10 uM; assay type: functional; settings: Striatum, Membrane
[5] = species on record: Rattus norvegicus; assay: Effect on cAMP synthesis in rat striatal membranes as increase above basal value at a concentration of 10 uM in the presence of 1 uM of SCH 23390.; assay type: functional; settings: Striatum, Membrane
[6] = target: D(1A) dopamine receptor (Homo sapiens, UniProt P21728); assay: Affinity towards Dopamine receptor D1
[7] = target: D(2) dopamine receptor (Homo sapiens, UniProt P14416); assay: In vitro receptor binding affinity against Dopamine receptor D2
Sequence of D(2) dopamine receptor (Homo sapiens, UniProt P14416) (P14416 whole entry): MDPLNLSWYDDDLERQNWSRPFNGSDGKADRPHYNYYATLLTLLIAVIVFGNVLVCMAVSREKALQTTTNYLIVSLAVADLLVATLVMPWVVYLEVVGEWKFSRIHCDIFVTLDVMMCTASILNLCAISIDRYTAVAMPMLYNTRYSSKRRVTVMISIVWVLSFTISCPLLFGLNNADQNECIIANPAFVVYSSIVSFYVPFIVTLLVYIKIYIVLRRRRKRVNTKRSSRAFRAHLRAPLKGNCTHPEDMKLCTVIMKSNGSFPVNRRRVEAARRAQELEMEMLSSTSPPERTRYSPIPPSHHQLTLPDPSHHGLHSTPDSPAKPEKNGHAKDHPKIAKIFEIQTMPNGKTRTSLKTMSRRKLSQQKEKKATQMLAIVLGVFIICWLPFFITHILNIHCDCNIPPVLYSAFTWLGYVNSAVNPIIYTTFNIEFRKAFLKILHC

Sequence of D(2) dopamine receptor (Rattus norvegicus, UniProt P61169) (P61169 whole entry): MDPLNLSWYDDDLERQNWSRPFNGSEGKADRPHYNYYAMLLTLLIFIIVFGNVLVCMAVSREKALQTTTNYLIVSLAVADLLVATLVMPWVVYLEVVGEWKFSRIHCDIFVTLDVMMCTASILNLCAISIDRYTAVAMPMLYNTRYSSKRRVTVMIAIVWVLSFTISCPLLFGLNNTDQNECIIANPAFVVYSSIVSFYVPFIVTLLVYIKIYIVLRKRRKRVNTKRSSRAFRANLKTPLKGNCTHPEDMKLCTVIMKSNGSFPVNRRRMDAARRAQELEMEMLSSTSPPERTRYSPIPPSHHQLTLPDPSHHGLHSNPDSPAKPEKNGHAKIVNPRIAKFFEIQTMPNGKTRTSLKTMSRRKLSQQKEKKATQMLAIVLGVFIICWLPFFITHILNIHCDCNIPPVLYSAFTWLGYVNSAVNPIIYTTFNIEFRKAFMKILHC
Sequence of D(1A) dopamine receptor (Rattus norvegicus, UniProt P18901) (P18901 whole entry): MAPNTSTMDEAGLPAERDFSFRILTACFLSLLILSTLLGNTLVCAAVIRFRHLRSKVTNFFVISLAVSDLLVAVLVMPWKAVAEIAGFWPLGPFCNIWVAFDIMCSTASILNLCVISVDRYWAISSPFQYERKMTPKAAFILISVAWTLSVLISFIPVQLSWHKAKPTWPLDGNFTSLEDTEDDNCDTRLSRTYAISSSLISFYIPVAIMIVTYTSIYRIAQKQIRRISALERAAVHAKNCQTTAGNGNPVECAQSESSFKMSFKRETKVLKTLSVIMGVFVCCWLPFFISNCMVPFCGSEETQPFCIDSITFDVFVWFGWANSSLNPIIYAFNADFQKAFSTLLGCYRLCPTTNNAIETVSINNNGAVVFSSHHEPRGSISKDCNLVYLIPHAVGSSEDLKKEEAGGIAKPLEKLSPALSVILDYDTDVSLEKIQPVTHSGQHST
Sequence of D(1A) dopamine receptor (Homo sapiens, UniProt P21728) (P21728 whole entry): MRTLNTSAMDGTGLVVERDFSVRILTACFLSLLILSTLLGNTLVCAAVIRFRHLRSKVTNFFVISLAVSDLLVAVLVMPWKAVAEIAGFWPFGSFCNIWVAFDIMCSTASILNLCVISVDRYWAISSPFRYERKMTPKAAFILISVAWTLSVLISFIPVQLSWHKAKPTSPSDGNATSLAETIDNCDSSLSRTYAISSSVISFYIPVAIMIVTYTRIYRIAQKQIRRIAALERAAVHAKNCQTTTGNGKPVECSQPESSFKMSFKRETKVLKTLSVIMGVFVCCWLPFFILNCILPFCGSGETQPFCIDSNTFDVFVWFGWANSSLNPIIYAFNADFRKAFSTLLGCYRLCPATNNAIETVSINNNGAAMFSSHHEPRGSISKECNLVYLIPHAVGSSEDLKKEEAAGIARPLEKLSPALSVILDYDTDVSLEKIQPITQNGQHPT

Oc1ccc2c(c1)[C@@H]1c3ccccc3CN[C@@H]1CC2
Increase [1]: inactive
IC50 [2]: 15.5 µM
IC50 [3]: 16.7 µM

Oc1ccc2c(c1)[C@H]1c3ccccc3CN[C@@H]1CC2
Increase [4]: 15%
IC50 [2]: 0.631 µM
IC50 [3]: 0.102 µM

Oc1cccc2c1CC[C@H]1NCc3ccccc3[C@H]21
IC50 [2]: 0.532 µM
IC50 [3]: 5.55 µM

CN1Cc2ccccc2[C@@H]2c3ccc(O)c(O)c3CC[C@H]21
Increase [1]: inactive
IC50 [2]: 0.121 µM
IC50 [3]: 0.955 µM

CN1Cc2ccccc2[C@@H]2c3cc(O)ccc3CC[C@H]21
Increase [4]: 8%
IC50 [2]: 0.359 µM
IC50 [3]: 0.115 µM

Oc1cc2c(cc1O)[C@H]1c3ccccc3CN[C@@H]1CC2
Increase [5]: 1%
Increase [4]: 103%

NC1CCc2cc(O)c(O)cc2[C@H]1c1ccccc1 (some centres not stated)
IC50 [6]: > 1 µM
IC50 [7]: > 1 µM

NCCc1ccc(O)c(O)c1
Increase [4]: 100%

CN1Cc2ccccc2[C@@H]2c3cc(O)c(Br)cc3CC[C@H]21
Increase [1]: inactive
IC50 [2]: 3 µM
IC50 [3]: 0.322 µM

Oc1cccc2c1CC[C@H]1NCc3ccccc3[C@@H]21
Increase [1]: inactive
IC50 [2]: 2 µM
IC50 [3]: 2.9 µM

CCCN1Cc2ccccc2[C@@H]2c3cc(O)ccc3CC[C@H]21
IC50 [2]: 0.21 µM
IC50 [3]: 0.529 µM
